Results taken from patent US20120076742A1, “Topical drug delivery system with dual carriers” (priority 2010, published 2012).

Key:
[1] = Study I: vancomycin peaks and troughs in patient; assay type: in vivo, human; conditions: 1.5 g BID, Q12, seven doses
Experimental: Fri 2/5: Detection of a Strep-A strain, confirmed by culture study. Shifted from gentamycin to vancomycin 1.5 g BID, Q12. Patient was kept on this dosing regimen until 2/8 (date of discharge from hospital).
Mon 2/8: Patient received the last of seven doses of vancomycin. Throughout all of this their peaks (within 1 hour of receiving vancomycin) and troughs (before receiving vancomycin) were normal (ranges not noted here). Patient was discharged from the hospital on this date.

MRSA = conditions: IV, 8 days following admission
Experimental: In this embodiment, the additional ingredient to hasten a third therapeutic tissue healing effect was added. This embodiment used vitamin D in a small but medically efficacious amount.

[2] = test system: Staph aureus, MRSA, Klebsiella pneumoniae, E. coli, Proteus vulgaris, Pseudomonas aeruginosa, Enterobacter cloacae, Acinetobacter lwoffi, Acinetobacter …; experiment: In-vitro Petri dish comparison of Lots and control antibiotics (FIGS. 16-36); assay type: cell-based; conditions: identical size drops (diameters of ZOA); FIGS. 16-25
HL-60 cells = conditions: cited from earlier work; for amount at which desired cellular responses occurred: priming experiments
[3] = test system: mouse embryonic stem cells and embryoid bodies; conditions: cited from earlier work

Compound	zones of inhibition of control active agents compared with the formulations of the invention [2]	amount at which desired cellular responses occurred (HL-60 cells)	other results
CN[C@H](CC(C)C)C(=O)N[C@H]1C(=O)N[C@@H](CC(N)=O)C(=O)N[C@H]2C(=O)N[C@H]3C(=O)N[C@H](C(=O)N[C@H](C(=O)O)c4cc(O)cc(O)c4-c4cc3ccc4O)[C@H](O)c3ccc(c(Cl)c3)Oc3cc2cc(c3O[C@@H]2O[C@H](CO)[C@@H](O)[C@H](O)[C@H]2O[C@H]2C[C@](C)(N)[C@H](O)[C@H](C)O2)Oc2ccc(cc2Cl)[C@H]1O [Vancomycin]	considerably reduced zones of inhibition	–	peaks (within 1 hour of receiving) and troughs (before receiving) [1]: normal; patient response to treatment (MRSA): did not respond
CO[C@@]1(NC(=O)Cc2cccs2)C(=O)N2C(C(=O)O)=C(COC(N)=O)CS[C@@H]21 [Cefoxicillin]	considerably reduced zones of inhibition	–	–
vitamin D	–	about 100 nM	–
C[S+](C)[O-] [DMSO, dimethyl sulfoxide]	–	less than 2%	subsequent retinoid-induced TGM2 expression (HL-60 cells; priming of the cells by pretreatment): increases; effect on epigenetic profiles [3]: upregulation of mRNA and protein expression
CC[C@H]1OC(=O)[C@H](C)[C@@H](O[C@H]2C[C@@](C)(OC)[C@@H](O)[C@H](C)O2)[C@H](C)[C@@H](O[C@@H]2O[C@H](C)C[C@H](N(C)C)[C@H]2O)[C@](C)(O)C[C@@H](C)C(=O)[C@H](C)[C@@H](O)[C@]1(C)O [Erythromycin]	considerably reduced zones of inhibition	–	–
